Source: publication PMC12299847, “Macroalgae-Inspired Brominated Chalcones as Cosmetic Ingredients with the Potential to Target Skin Inflammaging” (Marine Drugs, 2025)

Tests used:
[1] = tested on: iNOS protein levels in RAW264.7 macrophages; experiment: Western blot analysis of iNOS expression in LPS-stimulated macrophages; type: cell-based, murine; details: for iNOS expression level: normalized against LPS condition
Protocol: To investigate the underlying mechanism of action of the most promising brominated chalcones (1 and 2), their effects on iNOS protein levels were assessed in LPS-stimulated macrophages at different time points (4, 6, and 24 h). The non-treated (NT) condition, consisting of macrophages stimulated with LPS but receiving no chalcone treatment, was used as the reference for maximal iNOS induction under inflammatory conditions and served as a positive control. The selected concentrations (7.5 μM and 15 μM) were selected based on chalcones 1 and 2 cytocompatibility (Figure 3) and efficacy in reducing NO production (Figure 4). Since NO production is a direct consequence of iNOS enzymatic activity, where the enzyme catalyzes the conversion of L-arginine to NO following inflammatory stimulation such as LPS, this provides a functional readout of iNOS expression and activity.
Here, we focused on validating iNOS expression at the protein level by western blot (Figure 6). While gene-level expression was not assessed, it is well established that LPS stimulation induces both iNOS transcription and translation in RAW 264.7 macrophages. Moreover, changes observed at the protein level are often closely associated with upstream transcriptional or translational modulation. Therefore, quantifying iNOS protein levels provides a biologically relevant measure of the chalcones’ inhibitory effects on this key inflammatory mediator.
The expression of the iNOS enzyme was analyzed by western blot. RAW264.7 macrophages were seeded at a density of 1 × 10^6 cells/well in a 6-well plate and incubated for 24 h at 37 °C in a humidified atmosphere containing 5% CO2. After incubation, cells were treated with 7.5 µM or 15 µM of the most promising chalcones (1 and 2) for 30 min, followed by the addition of LPS to have a final concentration of 100 ng/mL. Cells were then incubated for 4, 6, or 24 h. At each time point, cells were washed with PBS and lysed in RIPA buffer. The lysates were collected in Eppendorf tubes and kept on ice, with intermittent vortexing to ensure thorough lysis. Samples were centrifuged at 18,000× g for 16 min at 4 °C, and the supernatant was collected. Total protein concentration was determined using the Pierce™ BCA Protein Assay Kit (Thermo Scientific, 23225, Waltham, MA, USA), following the manufacturer’s instructions. Equal amounts of protein (25 µg) were loaded onto Bolt™ 8% Bis-Tris Mini Protein Gels (Invitrogen™, NW00087BOX, Waltham, MA, USA) and separated via electrophoresis. Proteins were then transferred onto nitrocellulose membranes (Invitrogen™, IB24002) using the iBlot® 2 dry transfer system (Invitrogen™, Waltham, MA, USA). After transfer, membranes were sectioned to separate the iNOS bands from those of the housekeeping protein GAPDH. Membranes were blocked for 1 h at room temperature in TBS-T containing 5% BSA and subsequently incubated overnight at 4 °C with primary antibodies against iNOS (Cell Signaling Technology, 16713120S, Danvers, MA, USA) or GAPDH (Abcam, ab181602, Cambridge, UK), diluted in TBS-T with 1% BSA. On the following day, membranes were washed three times with TBS-T and incubated for 1 h at room temperature with an HRP-conjugated secondary antibody (Cell Signaling Technology, 7074S) diluted in TBS-T with 1% BSA. After three additional washes, signal detection was performed using Clarity™ Western ECL Substrate (Bio-Rad, 1705061, Hercules, CA, USA), and chemiluminescent signals were acquired using the Odyssey FC imaging system (LI-COR, Lincoln, NE, USA). Densitometric analysis of iNOS bands was performed using Image Studio™ Software (version 5.2, LI-COR, Lincoln, NE, USA), with values normalized to the corresponding GAPDH bands.
Figure 6 iNOS expression level after treatment of 4, 6, and 24 h with chalcones 1 and 2 in macrophage cell line. Results are expressed as volume arbitrary unit (A). […]

[2] = tested on: Nrf2; experiment: KeratinoSens assay, Nrf2 luciferase reporter; type: cell-based, human; details: 24 h, compared to vehicle (DMSO)
Protocol: The KeratinoSens™ assay was originally developed to assess the skin sensitization potential of Nrf2 activation, but it has also been utilized to evaluate the ability of natural compounds to induce this transcription factor [46, 47]. In this study, we assessed the capacity of chalcones 1 and 2 to activate Nrf2 after 24 and 48 h (Figure 8A–F).
Selected compounds (chalcones 1 and 2), and the positive control, DMF, were dissolved in sterile DMSO. Intermediate dilutions were prepared in culture medium, including the final concentration to be added to the 96-well plate, with a final volume of 200 µL per well. The KeratinoSens™ assay was conducted as previously described. In brief, cells were seeded at a density of 10,000 cells per well in 96-well white opaque plates (Greiner Bio-One GmbH, cat. no. 655083, Kremsmünster, Austria) and incubated for 24 h. The medium was then replaced with fresh medium containing 1% FBS and the test compounds, and cells were incubated for an additional 24 and 48 h. DMF was used as the positive control since it is a known Nrf2 activator. Cell viability was assessed in the same cells using resazurin. After 20 or 44 h of exposure to the test compounds, 50 µM of resazurin solution (in sterile PBS) was added to each well, and the plates were incubated for 4 h at 37 °C, 5% CO2 Following the resazurin incubation, the supernatant was transferred to a transparent 96-well plate, and absorbance was measured at 570 and 620 nm using a Synergy HT multi-mode microplate reader (BioTek, Bad Friedrichshall, Germany). To measure luciferase activity, cells in the white opaque 96-well plates were washed with 1× PBS. An equal volume of 1× PBS and lysis buffer (One-GLO Luciferase, cat. no. E6130, Promega, Madison, WI, USA) was added to the wells, and the plates were incubated for 20 min at room temperature. Luminescence was then measured using a FLUOstar OMEGA Microplate Reader (BMG Labtech GmbH, Ortenberg, Germany).
Figure 8 Nrf2 activation using the KeratinoSens™ assay in HaCaT cells transfected with an Nrf2 luciferase reporter construct, incubated for 24 h (A–C) or 48 h (D–F) with chalcones 1 and 2. DMF was used as a positive control. Data represent the results from four independent experiments. Non-linear regression analysis was performed using GraphPad Prism v.9.0.0 for Windows. The blue line represents the results of cell viability (% regarding the control) and the green line represents fold induction. Statistical analysis: one ANOVA with Dunnett’s multiple comparisons test, where significance includes. * p < 0.05, ** p < 0.01, *** p < 0.0005, and **** p < 0.0001.

## COc1cc(Br)c(/C=C/C(=O)c2cc(OC)c(OC)cc2Br)cc1OC [Chalcone 1]
[1]; 7.5 µM, 4 h
  iNOS expression level: 84.7%
[1]; 7.5 µM, 24 h
  iNOS expression level: 14.3%
[1]; 15 µM, 4 h
  iNOS expression level: 28.3%
[1]; 15 µM, 6 h
  iNOS expression level: 13.5%
[1]; 15 µM, 24 h
  iNOS expression level: 16.7%
[1]; regardless of concentration (7.5 µM at 24 h, 15 µM at 6 h)
  maximum reduction of iNOS expression: approximately 85%
[2]; 7.5 µM
  Nrf2 mean fold induction: 3.49 fold
[2]; Homo sapiens, 5 µM
  fold induction at 5 µM: 3.18
[2]; Homo sapiens, 7.5 µM
  fold induction at 7.5 µM: ~3.5
